From ChEMBL document CHEMBL1152103, “U-87947E, a protein quinolone antibacterial agent incorporating a bicyclo[1.1.1]pent-1-yl (BCP) subunit” (1993)
In brackets after ≈: the same amount, converted by molar mass.

Experiments:
Assay type in all cases: functional
Pseudomonas aeruginosa = experiment: The compound was tested for its antibacterial activity against Pseudomonas aeruginosa (20 strains)
Staphylococcus aureus [1] = experiment: The compound was tested for its antibacterial activity against Staphylococcus aureus, ciprofloxacin resistant (14 strains)
Streptococcus pyogenes = experiment: The compound was tested for its antibacterial activity against Streptococcus pyogenes (10 strains)
Escherichia coli = experiment: The compound was tested for its antibacterial activity against Escherichia coli (21 strains)
Bacteroides fragilis = experiment: The compound was tested for its antibacterial activity against Bacteroides fragilis (12 strains)
Haemophilus influenzae = experiment: The compound was tested for its antibacterial activity against Haemophilus influenzae (10 strains)
Staphylococcus aureus [2] = experiment: The compound was tested for its antibacterial activity against Staphylococcus aureus (12 strains)
Streptococcus pneumoniae = experiment: The compound was tested for its antibacterial activity against Streptococcus pneumoniae (10 strains), expressed as MIC90
Enterococcus faecalis = experiment: The compound was tested for its antibacterial activity against Enterococcus faecalis (10 strains)

Structure (SMILES)	MIC90 (Pseudomonas aeruginosa)	MIC90 (Staphylococcus aureus [1])	MIC90 (Streptococcus pyogenes)	MIC90 (Escherichia coli)	MIC90 (Bacteroides fragilis)	MIC90 (Haemophilus influenzae)	MIC90 (Staphylococcus aureus [2])	MIC90 (Streptococcus pneumoniae)	MIC90 (Enterococcus faecalis)
CS(=O)(=O)O.C[C@H]1CN(c2c(F)cc3c(=O)c(C(=O)O)cn(C45CC(C4)C5)c3c2F)C[C@H]1CN	8 mg/L	0.5 mg/L	0.125 mg/L	0.125 mg/L	1 mg/L	0.06 mg/L	0.125 mg/L	0.125 mg/L	0.25 mg/L
O=C(O)c1cn(C2CC2)c2cc(N3CCNCC3)c(F)cc2c1=O [CIPROFLOXACIN]	2 mg/L (≈ 6.04 µM)	> 16 mg/L	0.5 mg/L (≈ 1.51 µM)	0.03 mg/L (≈ 0.0905 µM)	8 mg/L (≈ 24.1 µM)	0.015 mg/L (≈ 0.0453 µM)	1 mg/L (≈ 3.02 µM)	1 mg/L (≈ 3.02 µM)	2 mg/L (≈ 6.04 µM)
